From US20240197666A1, “DITERPENOID COMPOUNDS THAT ACT ON PROTEIN KINASE C (PKC)” (K-Gen Therapeutics, Inc., priority 2021, published 2024) come the findings set out here.

Assay [1] deals with Panc2.13 tumors. In words: Panc2.13 xenograft model, intra-tumoral injection. Particulars: end of efficacy study, three mice per group, seven daily IT injections. The class given is in vivo, mouse. How it is done: Immunodeficient (athymic) Nu/Nu mice were implanted at one flank subcutaneously with Panc2.13 pancreatic cancer cells. […] All groups tolerated drug treatments very well. […] Scabs formed after 1-2 weeks and the skin recovered with minimal scaring after 3-4 weeks. Tumor growth/re-growth on or near the injection site was monitored for up to 55 days. […] Tumor growth inhibition is calculated by dividing the group average tumor volume for the treated group by the group average tumor volume for the control group (TIC). A one-way ANOVA was performed to compare tumor volume among groups, and when a significant F-statistics (a ratio of treatment variance to the error variance) was obtained, comparisons between groups were carried out with Games-Howell test. All data were analyzed using GraphPad 5.0. P<0.05 was considered to be statistically significant.
A Mann-Whitney method was performed to analyze the tumor clearance rate comparing drug treated groups with the vehicle group at the end of the efficacy study. P<0.05 was considered to be statistically significant. Vehicle-injected tumors kept growing and there was no tumor clearance at the end point.

For assay [2], the system named is A549 cell line. As to the kind of experiment: Proliferation of A549 (CellTiter Glo). In kind it is cell-based. Conditions: Homo sapiens, A549, 96 h, read-out: IC50 μM (A549 Cell Line). The procedure, abridged: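 A549 cells (K-Ras-mutant NSCLC) were seeded at 1,000 cells/well, allowed 24 h to settle, then exposed for 96 h to 3-fold serially diluted compound (final DMSO ≤0.25%). CellTiter Glo luminescence was read, and inhibition was calculated relative to DMSO-only wells. IC50, relative IC50 and % top inhibition came from curve fitting.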
A general note: In ATP-based viability assays light output follows the ATP content of the culture.

The test system of assay [3] is NFκB-driven transcription in HeLa-NFκB luciferase reporter cell line. In words: NFκB luciferase reporter assay. Particulars: Homo sapiens, HeLa, 16 h, read-out: NFκB-luc HeLa cells EC50 (μM). Background: Reporter assays use an easily measured gene product as a stand-in for the process of interest.
Assay [4] deals with phosphorylation of PKCμ, PKCδ and Erk1/2 in A549 lung cancer cells. In words: Western blot of activation of PKC and downstream target protein in A549 cells. Particulars: 0.3 μM, 30 minutes. In kind it is cell-based. How it is done:
According to the methods described in patent (WO/2017/083783) A549 lung cancer cells (˜3 million cells) were seeded in 10 cm tissue culture dishes (or ˜1 million cells in 6 cm dish) and grown overnight. Cells were then treated with different drugs at indicated concentrations for 30 minutes. Cell lysate preparation, protein quantitation, SDS-PAGE, and Western blotting procedures are described (WO/2017/083783). β-actin or Vinculin was used as loading controls. Imagequant LAS4000 (GE) was used to scan membranes if secondary antibodies anti-mouse IgG HRP conjugate or anti-rabbit IgG HRP conjugate (dilutions from 1:2000-1:10000) were used. For ProteinSimple Wes system, manufacture's procedure was followed (ProteinSimple 12-230 kDa Wes Separation Module) for sample preparation, loading, running, and data analysis.
Phosphorylation of these sites has been linked to acute activation or catalytic activity of the PKC isoforms and Erk1/2. High level of phosphorylation indicates strong activation.
A subset of the diterpenoid compounds with good binding affinity to novel PKC isoforms and PKCμ was tested at two different concentrations in A549 cells to assess activation of PKCμ, PKCδ, and Erk1/2 by Western blot analysis. In addition to the phospho-specific antibodies described above, an additional phospho-specific antibody P-PKCδ (S299) (Abcam cat #133456) was also used. This antibody has been shown in the literature (Durgan et al., FEBS Lett. 2007, 581(18):3377-81, Novel phosphorylation site markers of protein kinase C delta activation) to be able to detect activation of PKCδ. K-101 (prostratin, 1 μM) was included as reference compounds.
For orientation: A western blot detects proteins with antibodies after separation by electrophoresis.

The test system of assay [5] is PANC1 cells. In words: Sphere formation assay. In kind it is cell-based. Conditions: Homo sapiens, PANC-1, read-out: concentration exhibiting at least 50% inhibition on the sphere forming efficiency. How it is done: A group of diterpenoid compounds of the present disclosure were tested to assess their effects on blocking formation of spheres from cancer cell lines such as PANC1, a K-Ras mutant pancreatic cell line. Briefly, PANC1 cells were harvested, re-suspended as single cell suspensions, counted and seeded into Ultra Low Attachment Culture 96-well plate (Corning, Cat #3474) at 100 cells/well in 100 μl of complete media (with 10% FBS) containing 2% Matrigel (Corning, Cat #354234) and DMSO or compounds. Six replicates per condition were seeded. The seeded cells were placed in the 37° C. tissue culture incubator. 10 μl of low serum containing media (with 0.1% FBS) was added to each well every week. Spheres formed after 3-4 weeks were counted. Sphere forming efficiency was expressed as percentage of # of spheres/ # of cells seeded.

Assay [6] deals with T1, C1b domain of human PKCα (Homo sapiens, UniProt P17252).
T1 construct: Genes encoding C1b domains of human PKCα, δ, ε, θ, and PKD1 (PKCμ) were synthesized; made in house; host or cells: E. coli BL21(DE3)
In words: biochemical. In kind it is binding. Particulars: 3H-PDBu competition.

Assay [7] has as its system Panc2.13 (Pancreatic). In words: Proliferation of Panc2.13. The class given is cell-based. How it is done:
(§1) The diterpenoid compounds were tested in A549, a non-small cell lung cancer cell line harboring a K-Ras activating mutation. Briefly, A549 cells at a density of 1,000 cells/well were seeded in 96-well plates and incubated at 37° C. for 24 hours. A series of different concentrations of compound stocks (500×) were prepared by 3-fold serial dilution in DMSO. These compounds were further diluted in culture media and then added to cells so that the final DMSO concentration was not exceeding 0.25%. After 96 hours of incubation, 50 μL of CellTiter Glo reagent (Promega) was added to each well and luminescence was measured after 10 minutes using EnVision (PerkinElmer). Luminescence from cells treated with DMSO alone was set as Max and % of inhibition was calculated as follows: Inhibition %=(Max-Sample value)/Max×100. Data was analyzed using XL-fit software (ID Business Solutions Ltd.) and IC50, relative IC50, and % of top inhibition was calculated. Some of the compounds in this disclosure were very potent in blocking proliferation of A549 lung cancer cells at low nM range. In addition, potency of inhibiting A549 proliferation correlated well with its binding affinity to PKCs for this series of compounds. In other words, higher affinity binders had stronger inhibitory effects on A549 proliferation. This further support the notion that activation, rather than inhibition, of certain PKC isoforms is required to block proliferation of cancer cells, some of which may harbor K-Ras mutations. This is in sharp contrast to previous literature and common belief that inhibition of PKC is necessary to block cancer cell growth (Kang, 2014, New Journal of Science, 2014:1-36). Data presented here is in agreement with recent findings that many loss-of-function but not gain-of-function mutations of PKC isoforms have been identified in many human cancers (Antal et al., 2015, Cell, 160:489-502).
(§2) The compounds in this disclosure were tested for their potency in blocking proliferation of a few other cancer cells lines, including K-Ras mutant pancreatic cell lines Panc2.13 and KP-4, leukemia cell line HL-60, and lymphoma cell lines Namalwa and Mino. Similar procedures as in Example 67 were followed. Initial cell numbers seeded in 96-well plates were different for different cell lines: 3000 cells/well for Panc2.13; 800-1000 cells/well for KP-4; 5000 cells/well for HL-60; 5000-10000 cells/well for Namalwa and Mino. A ratio of (IC50 of K101)/(IC50 of compound) (data in parenthesis in Table 5) was used to normalize the compound potency from different assay batches to a common comparator K101.

The test system of assay [8] is HL-60 (Leukemia). In words: Proliferation of HL-60. The class given is cell-based.
The test system of assay [9] is KP-4 (Pancreatic). As to the kind of experiment: Proliferation of KP-4. In kind it is cell-based. Particulars: read-out: IC50 KP-4 (Pancreatic). How it is done: as §1, §2
For assay [10], the system named is Namalwa (Lymphoma). As to the kind of experiment: Proliferation of Namalwa. In kind it is cell-based. The procedure, abridged: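 Luminescent ATP read-out (CellTiter Glo) after 96 h compound exposure gave % inhibition relative to DMSO-treated cells, from which IC50 was fitted. Seeding densities were line-specific, from 800 to 10000 cells/well. Potency across batches was normalised to reference compound K101.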

For assay [11], the system named is Mino (Lymphoma). As to the kind of experiment: Proliferation of Mino. In kind it is cell-based. The procedure, abridged:
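Cells seeded per line (KP-4 800-1000, Panc2.13 3000, Namalwa and Mino 5000-10000 cells/well), 24 h at 37° C, then 96 h with 3-fold serial dilutions of compound, final DMSO ≤0.25%. CellTiter Glo luminescence read; % inhibition vs DMSO-only max, IC50 fitted. Potency also normalized as ratio to comparator K101 across batches.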

In the case of `CC1=C[C@H]2[C@@]3(O)[C@H](C)C[C@]4(OC(=O)[C@H](N)CCCCCCc5ccccc5)[C@H]([C@@H]3C=C(CO)C[C@]2(O)C1=O)C4(C)C` [Compound K101-K134801], in assay [1], the tumor clearance entry is recorded as “complete clearance of tumors”.
As a reminder, the EC50 is the concentration giving half of the maximal effect. Usually Ki stands for a measure of affinity in units of concentration, obtained from inhibition or displacement. With `CC1=C[C@H]2[C@@]3(O)[C@H](C)C[C@]4(OC(=O)[C@@H](N)CCCc5ccccc5)[C@H]([C@@H]3C=C(CO)C[C@]2(O)C1=O)C4(C)C`, the IC50 in assay [2] was 0.06 to 0.1 µM; in assay [5], not above 1500 nM; in assay [7] (read-out: IC50 Panc2.13 (Pancreatic)), 200 to 600 nM; in [8] (Homo sapiens, HL-60, read-out: IC50 HL-60 (Leukemia)) it was 30 to 60 nM; in assay [9] it was 100 to 200 nM; in [10] (read-out: IC50 Namalwa (Lymphoma)), 30 to 60 nM. Moreover, the IC50 in assay [11] (Homo sapiens, MINO, read-out: IC50 Mino (Lymphoma)) was 10 to 30 nM. Moreover, in assay [3], the EC50 lay in the range of 0.06 to 0.1 µM. Further, the “phosphorylation of PKCμ, PKCδ and Erk1/2” value in assay [4] is listed as “induced high levels of phosphorylation”. Also, in assay [6], the Ki was 60 to 100 nM. The “ratio (IC50 of K101)/(IC50 of compound) Panc2.13” value in assay [7] is listed as 3.65. Further, the “ratio (IC50 of K101)/(IC50 of compound) HL-60” value in assay [8] stood at 1.79. Further, the “ratio (IC50 of K101)/(IC50 of compound) Namalwa” value in assay [10] worked out at 1.53. In assay [11], the “ratio (IC50 of K101)/(IC50 of compound) Mino” value worked out at 6.
